Test results reported in ChEMBL document CHEMBL4145560, “Conformationally Constrained Cinnolinone Nucleoside Analogues as Siderophore Biosynthesis Inhibitors for Tuberculosis” (ACS Med Chem Lett, 2018).
The source made the active and inactive calls. No cut-off for these calls is given here.

Test system: Mycobacterium tuberculosis
Assay: Antimycobacterial activity against Mycobacterium tuberculosis overexpressing Rv0560c-OE in iron-free GAST medium at 0.04 to 10 uM after 8 days by two fold serial dilution method
Assay type: functional, organism-based

SMILES: Nc1ncnc2c1ncn2[C@@H]1O[C@H](COS(=O)(=O)NC(=O)c2ccccc2O)[C@@H](O)[C@H]1O
- Activity: Active
